Measured values from patent US10722444B2, “Stable hydrogel compositions including additives” (Allergan Industrie, SAS, priority 2014, dated 2020).

Assays:
[1] = Long term stability / accelerated aging at 45° C. of HA-based gel with additive; type: physicochemical; conditions: for ΔpH / ΔTan δ (1 Hz): 0.6% (w/w) caffeic acid gel of Example 1 vs HA-based gel matrix without additives
Procedure: Long term stability of a hydrogel composition disclosed herein can be determined by subjecting a hydrogel composition to a heat treatment, such as, e.g., storage in an about 45° C. environment for about 60 days. Long term stability of a hydrogel composition disclosed herein can be evaluated 1) by assessing the clarity and color of a hydrogel composition after the 45° C. heat treatment, with a clear and uncolored hydrogel composition being indicative of a substantially stable hydrogel composition; 2) by determining the change in the extrusion force (ΔF) of a hydrogel composition disclosed herein after the 45° C. heat treatment, where the change in extrusion force less 2N is indicative of a substantially stable hydrogel composition as measured by (the extrusion force of a hydrogel composition with the specified additives before and after the 45° C. heat treatment) minus (the extrusion force of the a hydrogel composition without the specified additives before and after the 45° C. heat treatment); and 3) by determining the change in rheological properties of a hydrogel composition disclosed herein after sterilization, where the change in tan δ 1 Hz of less than 0.1 is indicative of a substantially stable hydrogel composition as measured by Δ Tan δ 1 Hz=(tan δ 1 Hz of gel formulation with the specified additives before and after the 45° C. heat treatment) minus (tan δ 1 Hz of gel formulation without the specified additives before and after the 45° C. heat treatment). As such, a long term stability of a hydrogel composition disclosed herein is evaluated by retention of one or more of the following characteristics after the 45° C. heat treatment: clarity (transparency and translucency), homogeneousness, and cohesiveness.
(§1) Reminder for stability assessment with extrusion force: ΔF (F gel with additive −F gel without additive)<2N
Reminder for stability assessment with rheology: ΔTan δ (Tan δ 1 Hz gel with additive −Tan δ 1 Hz gel without additive)<0.1 […]
The formulation prepared in Example 3 was subjected to accelerated aging or accelerated degradation in order to test the stability of the gel. […]

[2] = Autoclaving stability of HA-based gel with additive (pH, extrusion force, rheology, appearance); type: physicochemical; conditions: for ΔpH / ΔTan δ (1 Hz): gel with additive minus gel without
Procedure: Stability of a hydrogel composition disclosed herein can be determined by subjecting a hydrogel composition to a heat treatment, such as, e.g., steam sterilization at normal pressure or under pressure (e.g., autoclaving). Preferably the heat treatment is carried out at a temperature of at least about 100° C. for between about one minute and about 15 minutes. Substantial stability of a hydrogel composition disclosed herein can be evaluated 1) by determining the change in the extrusion force (ΔF) of a hydrogel composition disclosed herein after sterilization, where the change in extrusion force less 2N is indicative of a substantially stable hydrogel composition as measured by (the extrusion force of a hydrogel composition with the specified additives) minus (the extrusion force of the a hydrogel composition without the added additives); and/or 2) by determining the change in rheological properties of a hydrogel composition disclosed herein after sterilization, where the change in tan δ 1 Hz of less than 0.1 is indicative of a substantially stable hydrogel composition as measured by Δ Tan δ 1 Hz=(tan δ 1 Hz of gel formulation with additives) minus (tan δ 1 Hz of gel formulation without additives). As such, a substantially stable hydrogel composition disclosed herein retains one or more of the following characteristics after sterilization: homogeneousness, extrusion force, cohesiveness, hyaluronan concentration, agent(s) concentration, osmolarity, pH, or other rheological characteristics such as tan δ.
as §1
Reminder for stability assessment with rheology: ΔTan δ (Tan δ 1 Hz gel with additive −Tan δ 1 Hz gel without additive)<0.1
Caffeic acid, at a concentration of 0.6%,(w/w), was incorporated into a HA-based gel matrix at 24 mg/g containing 5% of uncrosslinked HA. The gel formulated was autoclaved.
Inoveol® CAFA (supplied by Libragen), (INCI name: Aqua (and) Caffeyl Glucoside), a derivative of caffeic acid, at a concentration of 0.5% (w/w) of commercial solution, was incorporated into a HA-based gel matrix containing a viscoelastic portion. The gel formulated was autoclaved.
The gel formulated was autoclaved.

[3] = after 30 days at 45° C., 0.6% (w/w) caffeic acid gel of Example 1
[4] = after autoclaving, 0.6% (w/w) caffeic acid in HA-based gel matrix at 24 mg/g containing 5% uncrosslinked HA
[5] = before autoclaving, 0.6% (w/w) caffeic acid in HA-based gel matrix at 24 mg/g containing 5% uncrosslinked HA

In the case of `O=C(O)/C=C/c1ccc(O)c(O)c1` [Caffeic acid], the ΔpH ([1]; 10 days at 45° C.) is reported as 1.05, the “ΔTan δ (1 Hz)” value ([1]; 10 days at 45° C.) is reported as 0.0560 and the ΔpH ([1]; 20 days at 45° C.) is reported as 0.90. For the same compound, the “ΔTan δ (1 Hz)” value ([1]; 20 days at 45° C.) was 0.077, the ΔpH ([1]; 30 days at 45° C.) was 1.06 and the “ΔTan δ (1 Hz)” value ([1]; 30 days at 45° C.) was 0.144. The “colour of the gel” value [1, 3] was “dark brown”, the “physical analysis of the gel, finding” value [1, 3] was “degradation of the formulation” and the “appearance of the gel compared with before autoclaving” value [2, 4] was “similar”. The ΔpH [2, 4] was 0.55, the “ΔTan δ (1 Hz)” value [2, 4] was 0.02 and the extrusion analysis finding ([2]; autoclaved gel with 0.6% (w/w) caffeic acid) was “beginning of degradation of the uncrosslinked hyaluronic acid”. For the same compound, the “appearance of the gel” value [2, 5] was “clear and brown”, the ΔpH [2, 5] was 0.18 and the “ΔTan δ (1 Hz)” value [2, 5] was −0.003.
